Here are results for 20 molecules from ChEMBL document CHEMBL4052606, “The Bengamides: A Mini-Review of Natural Sources, Analogues, Biological Properties, Biosynthetic Origins, and Future Prospects” (J Nat Prod, 2017).

For assay [1], the system named is MDA-MB-435. Description: Cytotoxicity against human MDA-MB-435 cells assessed as reduction in cell viability after 24 hrs by MTT assay. Format: functional, cell-based. Conditions: MDA-MB-435, 24 h.
The subject of assay [2] is MDA-MB-435. Briefly: Cytotoxicity against human MDA-MB-435 cells assessed as reduction in cell viability after 72 hrs by MTS assay. Conditions: MDA-MB-435, 72 h. A general note: Formazan colour is commonly taken as a measure of viable cells.
The test system of assay [3] is HCT-116. Briefly: cells. Conditions: Homo sapiens, HCT-116, 96 h.
Description: Antiproliferative activity against human HCT116 cells after 96 hrs
Assay [4] has as its target Methionine aminopeptidase 2 (Homo sapiens, UniProt P50579). Briefly: Inhibition of human MetAP2.
Assay [5] relates to HT-1080. Briefly: Cytotoxicity against human HT1080 cells.
Assay [6] concerns MDA-MB-435. Briefly: Cytotoxicity against human MDA-MB-435 cells. It is filed as functional, cell-based.
Assay [7] deals with A549. Briefly: Antiproliferative activity against human A549 cells after 96 hrs. Conditions: A549, 96 h.
The test system of assay [8] is MDA-MB-231. Description: Cytotoxicity against human MDA-MB-231 cells. It is filed as functional, cell-based.
Assay [9] addresses Methionine aminopeptidase 1 (Homo sapiens, UniProt P53582). Description: Inhibition of human MetAP1.

Methionine aminopeptidase 2, sequence (P50579 whole entry): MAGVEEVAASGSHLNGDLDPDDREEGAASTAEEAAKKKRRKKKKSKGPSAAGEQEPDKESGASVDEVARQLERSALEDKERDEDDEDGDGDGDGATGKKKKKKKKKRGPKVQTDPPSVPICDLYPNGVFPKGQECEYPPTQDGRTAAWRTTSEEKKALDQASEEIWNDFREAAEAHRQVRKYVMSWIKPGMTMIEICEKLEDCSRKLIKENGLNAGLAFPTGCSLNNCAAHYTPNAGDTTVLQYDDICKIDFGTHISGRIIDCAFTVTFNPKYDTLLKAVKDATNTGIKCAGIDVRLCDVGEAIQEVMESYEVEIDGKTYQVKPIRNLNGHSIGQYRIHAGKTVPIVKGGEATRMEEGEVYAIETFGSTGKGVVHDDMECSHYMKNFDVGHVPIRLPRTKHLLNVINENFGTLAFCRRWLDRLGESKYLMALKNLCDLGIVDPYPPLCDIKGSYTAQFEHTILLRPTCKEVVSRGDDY

For the molecule `CO[C@@H](C(=O)N[C@@H](C)C(=O)NCCOC(=O)C1CCCCC1)[C@H](O)[C@@H](O)[C@H](O)/C=C/C(C)(C)C`, the IC50 (in general, the concentration that gives 50% inhibition) in assay [1] amounted to 4 nM.

Turning to `CCCCCCCCCCCCCC(=O)O[C@H]1CC[C@H](NC(=O)[C@H](OC)[C@H](O)[C@@H](O)[C@H](O)/C=C/C(C)C)C(=O)NC1` [BENGAMIDE A], the values for the IC50 in assay [2] and in assay [3] were 1 nM and 0.4 to 16 nM, respectively.

As for `CC(C)(C)OC(=O)Nc1cccnc1C(=O)Nc1nccs1`, the results for the IC50 in assay [4] and in assay [5] were > 300000 nM and 300 nM, respectively.

For `COc1ccc(N2CCN(c3nc(-c4ccccn4)nc4ccccc34)CC2)cc1`, the IC50 in [4] is > 100000 nM.

In assay [6], `CCCCCCCCCCCCCC(=O)OCCC[C@H](NC(=O)[C@H](OC)[C@H](O)[C@@H](O)[C@H](O)/C=C/C(C)(C)C)C(=O)NC` gave an IC50 of 190 nM.

Take `CO[C@@H](C(=O)N[C@H]1CCCCN(CCOC(=O)C2CCCCC2)C1=O)[C@H](O)[C@@H](O)[C@H](O)/C=C/C(C)(C)C`: the IC50 in assay [6] was 17 nM.

As to `CO[C@@H](C(=O)N[C@H]1CC[C@H](OC(=O)CCCCCCCCCCC(C)C)CN(C)C1=O)[C@H](O)[C@@H](O)[C@H](O)/C=C/C(C)C`, the IC50 in assay [4] was > 50000 nM.

Regarding `CO[C@@H](C(=O)N[C@H]1CC[C@H](O)CN(C)C1=O)[C@H](O)[C@@H](O)[C@H](O)/C=C/C(C)C` [BENGAMIDE F], the IC50 in assay [2] worked out at 3 nM.

`CCCCCCCCCCCCCC(=O)O[C@H]1CC[C@H](NC(=O)[C@H](OC)[C@H](O)[C@@H](O)[C@H](O)/C=C/C(C)C)C(=O)N(C)C1` [BENGAMIDE B]: the IC50 in assay [2] stood at 2 nM.

Turning to `CO[C@@H](C(=O)N[C@H]1CCCCNC1=O)[C@H](O)[C@@H](O)[C@H](O)/C=C/C1CCCC1`, the IC50 in assay [6] was found to be 0.4 nM.

For `CC(C)/C=C/[C@@H](O)[C@H](O)[C@@H](O)[C@@H](O)C(=O)N[C@H]1CCCCNC1=O`, in [2], the IC50 was 12000 nM.

Consider `CO[C@@H](C(=O)N[C@H]1CC[C@@H](OC(=O)C2CCCCC2)CNC1=O)[C@H](O)[C@@H](O)[C@H](O)/C=C/C(C)(C)C`, for which the IC50 in assay [2] is 40 nM; in [7], 13 nM; in [3] it was 23 to 40 nM.

Turning to `CO[C@@H](C(=O)N[C@H]1CCc2ccccc2NC1=O)[C@H](O)[C@@H](O)[C@H](O)/C=C/C(C)(C)C`, the IC50 in assay [2] was found to be 3.8 nM; in [7] it was 9 nM; in assay [3], 44 nM.

For `CO[C@@H](C(=O)N[C@H]1CCCCNC1=O)[C@H](O)[C@@H](O)[C@H](O)/C=C/C(C)C` [BENGAMIDE E], the IC50 in [2] was 4 to 7 nM; in assay [6] it was 3.8 nM; in [3], 3.8 to 600 nM.

In assay [6], `CO[C@H](C(=O)N[C@H]1CCCCNC1=O)[C@@H](O)[C@H](O)[C@@H](O)/C=C/C(C)C` gave an IC50 of 4 nM.

On to `CO[C@@H](C(=O)N[C@H]1CCCCNC1=O)[C@H](O)[C@@H](O)[C@H](O)/C=C\C(C)C`, for which, in [6], inhibition was half-maximal at 14 nM (IC50).

With `CO[C@H](C(=O)N[C@@H]1CCCCNC1=O)[C@@H](O)[C@H](O)[C@@H](O)/C=C/C(C)C`, in assay [3], the IC50 was > 50000 nM.

Regarding `CO[C@H]1[C@@H](OC(=O)/C=C/C=C/C=C/C=C/C(=O)O)CC[C@]2(CO2)[C@@H]1[C@@]1(C)O[C@@H]1CC=C(C)C`, the IC50 in assay [8] turned out to be 54 nM; in assay [4], 200 nM.

Consider `CO[C@@H](C(=O)N[C@H]1CC[C@@H](OC(=O)C2CCCCC2)CNC1=O)[C@H](O)[C@@H](O)[C@H](O)/C(C)=C/C(C)(C)C`, for which the figures for the IC50 in assay [9] and in [3] were > 10000 nM and 140 nM, respectively.

The molecule `CNC(=O)[C@H](CC(C)C)NC(=O)[C@H](OC)[C@H](O)[C@@H](O)[C@H](O)/C=C/C(C)(C)C` gave an IC50 in [6] of 20000 nM.
